The record followed here is US9598398B2, “Heterocyclic compound” (TAKEDA PHARMACEUTICAL COMPANY LIMITED, priority 2013, dated 2017).

The target in the first test is T1, human CH24H (Homo sapiens, UniProt Q9Y6A2).
T1 construct: Using Full-Length Mammalian Gene Collection No. 4819975 (Invitrogen) as a template; made in house; host or cells: FreeStyle 293-F cells, transient transfection with pcDNA3.1(+)/hCH24H; crude lysate supernatant
T1 sequence (Q9Y6A2 whole entry): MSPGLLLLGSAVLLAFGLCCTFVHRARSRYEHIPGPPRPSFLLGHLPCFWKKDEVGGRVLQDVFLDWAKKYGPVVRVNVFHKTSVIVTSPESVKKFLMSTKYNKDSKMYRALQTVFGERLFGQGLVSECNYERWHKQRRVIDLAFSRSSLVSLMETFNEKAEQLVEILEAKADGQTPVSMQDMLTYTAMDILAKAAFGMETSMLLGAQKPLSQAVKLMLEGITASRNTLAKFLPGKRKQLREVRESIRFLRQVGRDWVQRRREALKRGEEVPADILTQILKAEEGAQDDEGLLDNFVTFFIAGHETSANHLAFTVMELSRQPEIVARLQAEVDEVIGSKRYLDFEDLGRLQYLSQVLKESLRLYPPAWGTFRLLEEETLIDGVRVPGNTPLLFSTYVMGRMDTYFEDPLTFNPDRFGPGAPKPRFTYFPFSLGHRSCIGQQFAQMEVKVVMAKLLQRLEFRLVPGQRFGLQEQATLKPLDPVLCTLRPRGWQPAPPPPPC
The experiment in a line: Measurement of CH24H inhibitory activity (24-HC produced from [14C] cholesterol by human CH24H lysate). It is filed as biochemical. The settings on record: test compound 1 μM, [14C] cholesterol 15 μM, 37° C., 5 hr, read-out: Inhibitory Rate in 1 μM (%). How it is done:
A plasmid DNA for expressing human CH24H in a FreeStyle 293 cell was produced as follows. Using Full-Length Mammalian Gene Collection No. 4819975 (Invitrogen) as a template, and the following two kinds of synthesized DNAs:
PCR was performed to amplify 91-1625 bp region of human CH24H (BCO22539). The obtained fragment was cloned using TOPO TA Cloning Kit (Invitrogen). The obtained fragment was subcloned to pcDNA3.1(+) digested with BamHI and XhoI to give a plasmid DNA for human CH24H expression (pcDNA3.1(+)/hCH24H).
The expression of human CH24H was performed using FreeStyle 293 Expression System (Invitrogen). According to the manual attached to FreeStyle 293 Expression System and using the plasmid DNA for human CH24H expression (pcDNA3.1(+)/hCH24H) constructed in Experimental Example 1, a transient expression using FreeStyle 293-F cell was performed. After transfection, the cells were cultured at 37° C., 8% CO2 with shaking at 125 rpm for 2 days. The cells were collected by centrifugation, and suspended in a suspension buffer (100 mM potassium phosphate (pH 7.4), 0.1 mM EDTA, 1 mM DTT, 20% Glycerol). The suspended product was disrupted by a polytron homogenizer (manufactured by Kinematica), and centrifuged at 9000×g for 10 min, and the supernatant was collected. The collected supernatant was cryopreserved (−80° C.) as a human CH24H lysate standard product.
For the measurement of CH24H inhibitory activity, using the human CH24H lysate prepared in Experimental Example 2, the amount of 24-HC produced from cholesterol by catalytic activity of CH24H was measured in the presence of a test compound, and compared with that measured in the absence of the test compound. That is, a test compound solution at various concentrations was mixed with a reaction buffer (50 mM potassium phosphate containing 0.1% BSA and Complete, EDTA-free, pH 7.4) and human CH24H lysate. Then, [^14C] cholesterol (53 mCi/mmol specific activity, 15 μM) was added, and CH24H reaction was performed at 37° C. for 5 hr. After completion of the reaction, a quenching solution consisting of chloroform/methanol/distilled water (2:2:1 v/v) was added, and the resulting 24-HC was extracted by shaking. The extract was applied to silica gel thin layer chromatography (ethyl acetate:toluene=4:6), and the obtained ^14C-24HC fraction was measured with BAS2500 (Fujifilm Corporation).
The inhibitory rate (%) was calculated from the ratio of radioactivity in the presence of a test compound relative to the radioactivity in the absence of the test compound.
Take `O=C(CN1CCC(Oc2cccnc2-c2ccncc2)CC1)N1CCOCC1` [Example 38, 2-(4-(2,4′-bipyridin-3-yloxy)piperidin-1-yl)-1-(morpholin-4-yl)ethanone]: the inhibition at 1 µM came out at 84%.
Consider `c1ccc(CN2CCC(Oc3cccnc3-c3ccncc3)CC2)nc1` [Example 124, 3-((1-(pyridin-2-ylmethyl)piperidin-4-yl)oxy)-2,4′-bipyridine], for which the inhibition at 1 µM turned out to be 95%.
For `c1ccc(CN2CCC(Oc3cccnc3-c3ccncc3)CC2)cc1` [Example 4, 3-((1-benzylpiperidin-4-yl)oxy)-2,4′-bipyridine], the inhibition at 1 µM amounted to 86%.
Regarding `O=C(C1CC1)N1CCC(Oc2cccnc2-c2ccncc2)CC1` [Example 67, (4-(2,4′-bipyridin-3-yloxy)piperidin-1-yl)(cyclopropyl)methanone], the inhibition at 1 µM is 80%.
Turning to `c1ccc(CN2CCC(Oc3ccccc3-c3ccncn3)CC2)cc1` [Example 15, 4-(2-((1-benzylpiperidin-4-yl)oxy)phenyl)pyrimidine], the inhibition at 1 µM amounted to 94%.
The same measure, in the same setting: the value for `FC1(F)CN(Cc2ccccc2)CCC1Oc1ccccc1-c1ccncn1` (stereo not shown) [Example 34, 4-(2-((1-benzyl-3,3-difluoropiperidin-4-yl)oxy)phenyl)pyrimidine] was 91%; that for `c1cnc(-c2ccncc2)c(OC2CCN(Cc3cscn3)CC2)c1` [Example 47, 3-((1-(1,3-thiazol-4-ylmethyl)piperidin-4-yl)oxy)-2,4′-bipyridine] was 90%; that for `c1ccc(CN2CCC(Oc3cccnc3-c3ccncc3)C2)cc1` (stereo not shown) [Example 61, 3-((1-benzylpyrrolidin-3-yl)oxy)-2,4′-bipyridine] was 89%.
In the case of `Cn1cc(S(=O)(=O)N2CCC(Oc3cccnc3-c3ccncc3)C2)cn1` (stereo not shown) [Example 71, 3-((1-((1-methyl-1H-pyrazol-4-yl)sulfonyl)pyrrolidin-3-yl)oxy)-2,4′-bipyridine], the inhibition at 1 µM was 89%.
Turning to `COc1ccc(CN2CCN(S(=O)(=O)c3ccc(F)cc3-c3ccncc3)CC2)cc1` [Example 29, 1-((4-fluoro-2-(pyridin-4-yl)phenyl)sulfonyl)-4-(4-methoxybenzyl)piperazine], the inhibition at 1 µM turned out to be 59%.
Turning to `Cn1cc(CN2CCC(Oc3nccnc3-c3ccncc3)CC2)cn1` [Example 40, 2-((1-((1-methyl-1H-pyrazol-4-yl)methyl)piperidin-4-yl)oxy)-3-(pyridin-4-yl)pyrazine], the inhibition at 1 µM came to 88%.
On the same count and under the same terms, for `Fc1ccc(OC2CCN(Cc3ccccc3)CC2)c(-c2ccncc2)c1` [Example 5, 4-(2-((1-benzylpiperidin-4-yl)oxy)-5-fluorophenyl)pyridine] the value was 92%; for `CCN(CC)C(=O)CN1CCC(Oc2cccnc2-c2ccncc2)CC1` [Example 49, 2-(4-(2,4′-bipyridin-3-yloxy)piperidin-1-yl)-N,N-diethylacetamide], 85%.
For the molecule `Cn1cc(CN2CCC(Oc3cccnc3-c3ccncc3)CC2)cn1` [Example 22, 3-((1-((1-methyl-1H-pyrazol-4-yl)methyl)piperidin-4-yl)oxy)-2,4′-bipyridine], the inhibition at 1 µM worked out at 89%.
On to `CCS(=O)(=O)N1CCC(Oc2cc(F)ccc2-c2ccncc2)C1` (stereo not shown) [Example 88, 4-(2-((1-(ethylsulfonyl)pyrrolidin-3-yl)oxy)-4-fluorophenyl)pyridine], for which the inhibition at 1 µM amounted to 82%.
As to `CN(C)C(=O)CN1CCC(Oc2nccnc2-c2ccncc2)C(F)(F)C1` (stereo not shown) [Example 54, 2-(3,3-difluoro-4-((3-(pyridin-4-yl)pyrazin-2-yl)oxy)piperidin-1-yl)-N,N-dimethylacetamide], the inhibition at 1 µM amounted to 79%.
In the case of `O=S(=O)(c1ccc(F)cc1)N1CCC(Oc2nccnc2-c2ccncc2)C1` (stereo not shown) [Example 110, 2-((1-((4-fluorophenyl)sulfonyl)pyrrolidin-3-yl)oxy)-3-(pyridin-4-yl)pyrazine], the inhibition at 1 µM came to 89%.
With `O=S(=O)(N1CCOCC1)N1CCC(Oc2cccnc2-c2ccncc2)C1` (stereo not shown) [Example 85, 3-((1-(morpholin-4-ylsulfonyl)pyrrolidin-3-yl)oxy)-2,4′-bipyridine], the inhibition at 1 µM amounted to 84%.
Take `O=C1CN(Cc2ccc(F)cc2)CCN1Cc1cccnc1-c1ccncc1` [Example 55, 1-(2,4′-bipyridin-3-ylmethyl)-4-(4-fluorobenzyl)piperazin-2-one]: the inhibition at 1 µM was determined as 53%.
Turning to `COc1ccc(CC(=O)N2CCC(Oc3ccccc3-c3ccncn3)CC2)cc1` [Example 74, 2-(4-methoxyphenyl)-1-(4-(2-(pyrimidin-4-yl)phenoxy)piperidin-1-yl)ethanone], the inhibition at 1 µM worked out at 88%.
Regarding `COc1ccc(S(=O)(=O)N2CCC(Oc3cccnc3-c3ccncc3)C2)cc1` (stereo not shown) [Example 64, 3-((1-((4-methoxyphenyl)sulfonyl)pyrrolidin-3-yl)oxy)-2,4′-bipyridine], the inhibition at 1 µM was 92%.
As for `O=S(=O)(c1ccccc1)N1CCC(Oc2cccnc2-c2ccncc2)C1` (stereo not shown) [Example 120, 3-((1-(phenylsulfonyl)pyrrolidin-3-yl)oxy)-2,4′-bipyridine], the inhibition at 1 µM was found to be 94%.
Still for that read-out and setting: for `Cn1cc(S(=O)(=O)N2CCC(Oc3cc(F)ccc3-c3ccncn3)C2)cn1` (stereo not shown) [Example 84, 4-(4-fluoro-2-((1-((1-methyl-1H-pyrazol-4-yl)sulfonyl)pyrrolidin-3-yl)oxy)phenyl)pyrimidine] the value was 87%; for `Cn1ccnc1CN1CCC(Oc2ccccc2-c2ccncc2)CC1` [Example 16, 4-(2-((1-((1-methyl-1H-imidazol-2-yl)methyl)piperidin-4-yl)oxy)phenyl)pyridine], 93%; for `COc1ccc(CN2CCN(C(=O)c3cc(C)ccc3-c3ccncc3)CC2)cc1` [Example 3, (4-(4-methoxybenzyl)piperazin-1-yl)(5-methyl-2-(pyridin-4-yl)phenyl)methanone], 87%.
Turning to `CN(C)C(=O)CN1CCC(Oc2ccccc2-c2ccncc2)CC1` [Example 20, N,N-dimethyl-2-(4-(2-(pyridin-4-yl)phenoxy)piperidin-1-yl)acetamide], the inhibition at 1 µM amounted to 83%.

Another test relates to 24-HC in the brain extract. Put plainly: Quantification test of 24-HC in mouse brain after repeated oral administration. It is filed as in vivo. The settings on record: 10 mg/kg orally once a day for 3 days, female C57BL/6N mice; brain 24-HC at 16 hours after the third administration; relative to control group as 100%. The method, then:
Animals used were 6-week-old female C57BL/6N mice (3 mice/group). A test compound was suspended in a 0.5% aqueous methylcellulose [133-14255 WAKO] solution (1 mg/mL). The body weight of the mice was measured, and the solution was forcibly administered orally and repeatedly once a day for 3 days. At 16 hours after the third administration, half of the brain was harvested, and the amount of 24-HC was measured.
The wet weight of the brain was measured, and the brain was homogenized with 4-fold amount of saline. This solution was used as a brain extract. The 24-HC in the brain extract was extracted with an acetonitrile solution (98% acetonitrile, 1.98% methanol, 0.02% formic acid), and quantified by HPLC. The average value of 24-HC amount was calculated and the results are shown in relative values with the control group as 100%.
Regarding `c1cnc(-c2ccncc2)c(OC2CCN(Cc3cscn3)CC2)c1` [Example 47, 3-((1-(1,3-thiazol-4-ylmethyl)piperidin-4-yl)oxy)-2,4′-bipyridine], the “Brain 24-HC level relative to control (%)” value was 75%.
As for `Cn1cc(CN2CCC(Oc3nccnc3-c3ccncc3)CC2)cn1` [Example 40, 2-((1-((1-methyl-1H-pyrazol-4-yl)methyl)piperidin-4-yl)oxy)-3-(pyridin-4-yl)pyrazine], the “Brain 24-HC level relative to control (%)” value was 84%.
On the same count and under the same terms, the value for `CN(C)C(=O)CN1CCC(Oc2nccnc2-c2ccncc2)C(F)(F)C1` (stereo not shown) [Example 54, 2-(3,3-difluoro-4-((3-(pyridin-4-yl)pyrazin-2-yl)oxy)piperidin-1-yl)-N,N-dimethylacetamide] was 73%.

The same test, now with this note: 30 mg/kg orally once a day for 3 days, female C57BL/6N mice; brain 24-HC at 16 hours after the third administration; relative to control group as 100%.
As for `Cn1cc(S(=O)(=O)N2CCC(Oc3cccnc3-c3ccncc3)C2)cn1` (stereo not shown) [Example 71, 3-((1-((1-methyl-1H-pyrazol-4-yl)sulfonyl)pyrrolidin-3-yl)oxy)-2,4′-bipyridine], the “Brain 24-HC level relative to control (%)” value was found to be 86%.
The same measure, in the same setting: the value for `Cn1cc(CN2CCC(Oc3cccnc3-c3ccncc3)CC2)cn1` [Example 22, 3-((1-((1-methyl-1H-pyrazol-4-yl)methyl)piperidin-4-yl)oxy)-2,4′-bipyridine] was 77%.
